In patent US4060611A, “3-Carbamylbenzyl-7-(phenylglycyl)amino cephalosporin derivatives” (Beecham Group Limited, priority 1975, dated 1977):
Converted amounts (≈) assume the structure as drawn.

Legend:
Assay type in all cases: cell-based
β-haemolytic strep. CN10 = assay: MIC, growth inhibition on nutrient agar; conditions: nutrient agar (medium not given for Examples 6, 7), read-out: minimum inhibitory concentration (MIC)
Staph. aureus Oxford = assay: MIC, growth inhibition on nutrient agar; conditions: Staphylococcus aureus, nutrient agar (medium not given for Examples 6, 7), read-out: minimum inhibitory concentration (MIC)
Klebsiella aerogenes A = assay: MIC, growth inhibition on nutrient agar; conditions: nutrient agar (medium not given for Examples 6, 7), read-out: minimum inhibitory concentration (MIC)
P. morganii = assay: MIC, growth inhibition; conditions: Morganella morganii, medium not stated, read-out: minimum inhibitory concentration (MIC)
Staph. aureus Russell = assay: MIC, growth inhibition on nutrient agar; conditions: Staphylococcus aureus, nutrient agar (medium not given for Examples 6, 7), read-out: minimum inhibitory concentration (MIC)
B. subtilis = assay: MIC, growth inhibition on nutrient agar; conditions: Bacillus subtilis, nutrient agar (medium not given for Examples 6, 7), read-out: minimum inhibitory concentration (MIC)
E. coli JT1 = assay: MIC, growth inhibition on nutrient agar; conditions: Escherichia coli, nutrient agar (medium not given for Examples 6, 7), read-out: minimum inhibitory concentration (MIC)
P. mirabilis C977 = assay: MIC, growth inhibition on nutrient agar; conditions: Proteus mirabilis, nutrient agar (medium not given for Examples 6, 7), read-out: minimum inhibitory concentration (MIC)
P. rettgeri = assay: MIC, growth inhibition on nutrient agar; conditions: Providencia rettgeri, nutrient agar (medium not given for Examples 6, 7), read-out: minimum inhibitory concentration (MIC)
Enterobacter cloacae N1 = assay: MIC, growth inhibition on nutrient agar; conditions: nutrient agar (medium not stated for Example 6), read-out: minimum inhibitory concentration (MIC)
Salm. typhi = assay: MIC, growth inhibition on nutrient agar; conditions: Salmonella enterica, read-out: minimum inhibitory concentration (MIC)
P. mirabilis 889 = assay: MIC, growth inhibition on nutrient agar; conditions: Proteus mirabilis, read-out: minimum inhibitory concentration (MIC)
Shig. sonnei = assay: MIC, growth inhibition on nutrient agar; conditions: Shigella sonnei, read-out: minimum inhibitory concentration (MIC)
P. mirabilis 899 = assay: MIC, growth inhibition on nutrient agar; conditions: Proteus mirabilis, read-out: minimum inhibitory concentration (MIC)

SMILES: CN(C(=O)C=Cc1ccccc1)C(=O)N[C@@H](C(=O)N[C@@H]1C(=O)N2C(C(=O)O)=C(Cc3ccc(C(N)=O)cc3)CS[C@H]12)c1ccccc1 [Example 7, 3-(p-Carbamoylbenzyl)-7β-[D-α-(3-cinnamoyl-3-methyluriedo)phenylacetamido]ceph-3-em-4-carboxylic acid]
- MIC (β-haemolytic strep. CN10): 0.05 µg/mL (≈ 0.0765 µM)
- MIC (Staph. aureus Oxford): 0.1 µg/mL (≈ 0.153 µM)
- MIC (Klebsiella aerogenes A): 5 µg/mL (≈ 7.65 µM)
- MIC (P. morganii): 5 µg/mL (≈ 7.65 µM)
- MIC (Staph. aureus Russell): 12.5 µg/mL (≈ 19.1 µM)
- MIC (B. subtilis): 5 µg/mL (≈ 7.65 µM)
- MIC (E. coli JT1): 5 µg/mL (≈ 7.65 µM)
- MIC (P. mirabilis C977): 5 µg/mL (≈ 7.65 µM)
- MIC (P. rettgeri): 12.5 µg/mL (≈ 19.1 µM)

SMILES: NC(=O)c1ccc(CC2=C(C(=O)O)N3C(=O)[C@@H](NC(=O)C(C(=O)Oc4ccccc4)c4ccsc4)[C@H]3SC2)cc1 (mixture of isomers) [Example 6, 3-(p-Carbamoylbenzyl)-7β-(DL-α-phenoxycarbonyl-3^1-thienylacetamido)ceph-3-em-4-carboxylic acid]
- MIC (β-haemolytic strep. CN10): 25 µg/mL
- MIC (Staph. aureus Oxford): 12.5 µg/mL
- MIC (Enterobacter cloacae N1): 12.5 µg/mL
- MIC (Klebsiella aerogenes A): 2.5 µg/mL
- MIC (Staph. aureus Russell): 25 µg/mL
- MIC (B. subtilis): 25 µg/mL
- MIC (E. coli JT1): 5 µg/mL
- MIC (P. mirabilis C977): 12.5 µg/mL
- MIC (P. rettgeri): 5 µg/mL

SMILES: NC(=O)c1ccc(CC2=C(C(=O)O)N3C(=O)[C@@H](NC(=O)[C@H](N)c4ccccc4)[C@H]3SC2)cc1 [Example 1, 3-(p-Carbamoylbenzyl)-7β-(D-α-phenylglycyl)amino-ceph-3-em-4-carboxylic acid]
- MIC (Salm. typhi): 2.5 µg/mL (≈ 5.36 µM)
- MIC (β-haemolytic strep. CN10): 0.01 µg/mL (≈ 0.0214 µM)
- MIC (P. mirabilis 889): 2.5 µg/mL (≈ 5.36 µM)
- MIC (Staph. aureus Oxford): 0.1 µg/mL (≈ 0.214 µM)
- MIC (Klebsiella aerogenes A): 1 µg/mL (≈ 2.14 µM)
- MIC (Staph. aureus Russell): 2.5 µg/mL (≈ 5.36 µM)
- MIC (B. subtilis): 0.1 µg/mL (≈ 0.214 µM)
- MIC (Shig. sonnei): 2.5 µg/mL (≈ 5.36 µM)
- MIC (E. coli JT1): 2.5 µg/mL (≈ 5.36 µM)

SMILES: NC(=O)c1ccc(CC2=C(C(=O)O)N3C(=O)[C@@H](NC(=O)C(C(=O)Oc4ccccc4)c4ccccc4)[C@H]3SC2)cc1 (mixture of isomers) [Example 3, 3-(p-Carbamoylbenzyl)-7β-(DL-α-phenoxycarbonylphenylacetamido)ceph-3-em-4-carboxylic acid]
- MIC (Salm. typhi): 10 µg/mL
- MIC (β-haemolytic strep. CN10): 1 µg/mL
- MIC (Staph. aureus Oxford): 1 µg/mL
- MIC (Enterobacter cloacae N1): 10 µg/mL
- MIC (Klebsiella aerogenes A): 10 µg/mL
- MIC (Staph. aureus Russell): 10 µg/mL
- MIC (B. subtilis): 10 µg/mL
- MIC (Shig. sonnei): 5 µg/mL
- MIC (E. coli JT1): 5 µg/mL
- MIC (P. mirabilis C977): 5 µg/mL
- MIC (P. rettgeri): 5 µg/mL

SMILES: NC(=O)c1cc(CC2=C(C(=O)O)N3C(=O)[C@@H](NC(=O)[C@H](N)c4ccccc4)[C@H]3SC2)cc(C(N)=O)c1 [Example 5, 3-(3,5-dicarbamoylbenzyl)-7β-(D-α-phenylglycyl)amino-ceph-3-em-4-carboxylic acid]
- MIC (Salm. typhi): 10 µg/mL (≈ 19.6 µM)
- MIC (β-haemolytic strep. CN10): 0.5 µg/mL (≈ 0.981 µM)
- MIC (Staph. aureus Oxford): 0.5 µg/mL (≈ 0.981 µM)
- MIC (Klebsiella aerogenes A): 5 µg/mL (≈ 9.81 µM)
- MIC (Staph. aureus Russell): 5 µg/mL (≈ 9.81 µM)
- MIC (B. subtilis): 2.5 µg/mL (≈ 4.91 µM)
- MIC (Shig. sonnei): 10 µg/mL (≈ 19.6 µM)

SMILES: NC(=O)c1cccc(CC2=C(C(=O)O)N3C(=O)[C@@H](NC(=O)[C@H](N)c4ccccc4)[C@H]3SC2)c1 [Example 4, 3-(m-Carbamoylbenzyl)-7β-(D-α-phenylglycyl)amino-ceph-3-em-4-carboxylic acid]
- MIC (Salm. typhi): 10 µg/mL (≈ 21.4 µM)
- MIC (β-haemolytic strep. CN10): 0.05 µg/mL (≈ 0.107 µM)
- MIC (P. mirabilis 889): 10 µg/mL (≈ 21.4 µM)
- MIC (Staph. aureus Oxford): 0.1 µg/mL (≈ 0.214 µM)
- MIC (Klebsiella aerogenes A): 5 µg/mL (≈ 10.7 µM)
- MIC (Staph. aureus Russell): 2.5 µg/mL (≈ 5.36 µM)
- MIC (B. subtilis): 0.1 µg/mL (≈ 0.214 µM)

SMILES: NC(=O)c1ccc(CC2=C(C(=O)O)N3C(=O)[C@@H](NC(=O)[C@H](N)c4ccc(O)cc4)[C@H]3SC2)cc1 [Example 2, 3-(p-Carbamoylbenzyl)-7β-(D-α-p-hydroxyphenylglycyl)amino-ceph-3-em-4-carboxylic acid]
- MIC (Salm. typhi): 0.5 µg/mL (≈ 1.04 µM)
- MIC (β-haemolytic strep. CN10): 0.02 µg/mL (≈ 0.0414 µM)
- MIC (Staph. aureus Oxford): 0.1 µg/mL (≈ 0.207 µM)
- MIC (Klebsiella aerogenes A): 1 µg/mL (≈ 2.07 µM)
- MIC (Staph. aureus Russell): 1 µg/mL (≈ 2.07 µM)
- MIC (P. mirabilis 899): 5 µg/mL (≈ 10.4 µM)
- MIC (B. subtilis): 0.25 µg/mL (≈ 0.518 µM)
- MIC (Shig. sonnei): 2.5 µg/mL (≈ 5.18 µM)
- MIC (E. coli JT1): 2.5 µg/mL (≈ 5.18 µM)
- MIC (P. mirabilis C977): 2.5 µg/mL (≈ 5.18 µM)
